Columns and labels:
[1] = molecular target: T1, human dopamine D3 receptor (Homo sapiens, UniProt P35462); experiment: Radioligand binding ([3H]-spiperone) to membranes of HEK-293 EBNA cells expressing human D3 receptor; settings: human D3, 0.5 nM [3H]-spiperone, HEK-293 EBNA membranes, 1 h at RT
T1 construct: expressed in transfected cells; host or cells: HEK-293 EBNA cells, transient transfection; membrane preparation
Method in brief: (§1)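 Membranes from HEK-293 EBNA cells transiently transfected with the receptor were incubated 1 h at RT with ten test concentrations (10 μM–0.1 nM) and ~0.7 nM [3H]-spiperone (D2), 0.5 nM [3H]-spiperone (D3) or 1.1 nM [3H]-ketanserin (5-HT2A). Nonspecific binding was set with 10 μM spiperone, bound radioactivity was read by filtration and scintillation, and Ki was taken from IC50 via Cheng-Prusoff.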

[2] = molecular target: T2, human serotonin 5-HT2A receptor (Homo sapiens, UniProt P28223); experiment: Radioligand binding ([3H]-ketanserin) to membranes of HEK-293 EBNA cells expressing human 5-HT2A receptor; settings: 1.1 nM [3H]-ketanserin, HEK-293 EBNA membranes, 1 h at RT
T2 construct: expressed in transfected cells; host or cells: HEK-293 EBNA cells, transient transfection; membrane preparation
Method in brief: as §1

[3] = molecular target: T3, human dopamine D2 receptor (Homo sapiens, UniProt P14416); experiment: Radioligand binding ([3H]-spiperone) to membranes of HEK-293 EBNA cells expressing human D2 receptor; settings: human D2, 0.7 nM [3H]-spiperone, HEK-293 EBNA membranes, 1 h at RT
T3 construct: expressed in transfected cells; host or cells: HEK-293 EBNA cells, transient transfection; membrane preparation
Method in brief: as §1

T1 sequence (P35462 whole entry): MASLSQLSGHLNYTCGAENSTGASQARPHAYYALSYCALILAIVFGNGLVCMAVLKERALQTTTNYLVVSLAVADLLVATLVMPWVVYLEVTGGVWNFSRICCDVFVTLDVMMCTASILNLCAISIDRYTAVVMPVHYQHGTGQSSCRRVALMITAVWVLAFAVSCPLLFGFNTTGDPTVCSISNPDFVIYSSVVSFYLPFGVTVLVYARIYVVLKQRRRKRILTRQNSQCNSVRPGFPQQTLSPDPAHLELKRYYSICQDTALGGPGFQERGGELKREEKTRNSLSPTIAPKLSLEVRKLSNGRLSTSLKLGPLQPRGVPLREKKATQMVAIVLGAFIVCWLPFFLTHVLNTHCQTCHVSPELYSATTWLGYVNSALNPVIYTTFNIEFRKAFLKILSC
T2 sequence (P28223 whole entry): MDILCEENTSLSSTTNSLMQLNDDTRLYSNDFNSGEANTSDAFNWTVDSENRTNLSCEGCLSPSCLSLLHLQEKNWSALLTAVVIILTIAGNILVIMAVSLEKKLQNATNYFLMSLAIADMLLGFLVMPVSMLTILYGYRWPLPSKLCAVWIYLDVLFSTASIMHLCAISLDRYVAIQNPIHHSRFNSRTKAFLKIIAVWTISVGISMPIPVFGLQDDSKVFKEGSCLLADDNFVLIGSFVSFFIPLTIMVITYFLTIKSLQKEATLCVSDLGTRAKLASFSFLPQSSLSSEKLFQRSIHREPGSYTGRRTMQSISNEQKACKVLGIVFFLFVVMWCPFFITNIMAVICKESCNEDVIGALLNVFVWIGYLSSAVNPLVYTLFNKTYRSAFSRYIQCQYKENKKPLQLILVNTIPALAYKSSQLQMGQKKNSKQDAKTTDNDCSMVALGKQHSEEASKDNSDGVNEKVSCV
T3 sequence (P14416 whole entry): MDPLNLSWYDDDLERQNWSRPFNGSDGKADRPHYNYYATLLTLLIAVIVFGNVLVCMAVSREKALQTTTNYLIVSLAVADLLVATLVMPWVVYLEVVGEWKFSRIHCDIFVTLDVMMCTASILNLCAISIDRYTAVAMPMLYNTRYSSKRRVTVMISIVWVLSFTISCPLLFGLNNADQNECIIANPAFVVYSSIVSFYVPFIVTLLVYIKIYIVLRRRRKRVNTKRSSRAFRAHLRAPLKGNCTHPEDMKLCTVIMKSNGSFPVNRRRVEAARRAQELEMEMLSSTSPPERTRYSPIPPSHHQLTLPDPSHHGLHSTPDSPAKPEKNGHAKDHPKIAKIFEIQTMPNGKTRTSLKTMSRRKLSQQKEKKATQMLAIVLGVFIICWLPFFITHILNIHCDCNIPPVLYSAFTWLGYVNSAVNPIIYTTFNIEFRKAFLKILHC

Compound | Ki [1] [nM] | Ki [2] [nM] | Ki [3] [nM]
Cc1cc2c(N3CCN(CC[C@H]4CC[C@H](NC(=O)CC5COCCO5)CC4)CC3)noc2cc1F (stereo partly drawn) [Example 113, 2-[1,4]Dioxan-2-yl-N-trans-(4-{2-[4-(6-fluoro-5-methyl-benzo[d]isoxazol-3-yl)-piperazin-1-yl]-ethyl}-cyclohexyl)-acetamide] | 25 | 14 | > 10500
COCCC(=O)N[C@H]1CC[C@H](CCN2CCN(c3noc4cc(F)c(Cl)cc34)CC2)CC1 [Example 74, N-trans-(4-{2-[4-(5-Chloro-6-fluoro-benzo[d]isoxazol-3-yl)-piperazin-1-yl]-ethyl}-cyclohexyl)-3-methoxy-propionamide] | 10.1 | 12.2 | 260
CC(C)(O)CC(=O)N[C@H]1CC[C@H](CCN2CCN(c3noc4cc(Cl)ccc34)CC2)CC1 [Example 44, N-trans-(4-{2-[4-(6-Chloro-benzo[d]isoxazol-3-yl)-piperazin-l-yl]-ethyl}-cyclohexyl)-3-hydroxy-3-methyl-butyramide] | 10.1 | 6.59 | 325
O=C(N[C@H]1CC[C@H](CCN2CCN(c3noc4cc(F)c(Cl)cc34)CC2)CC1)c1ccc(Cl)s1 [Example 84, 5-Chloro-thiophene-2-carboxylic acid N-trans-(4-{2-[4-(5-chloro-6-fluoro-benzo[d]isoxazol-3-yl)-piperazin-1-yl]-ethyl}-cyclohexyl)-amide] | 2.94 | 7.11 | 258
COC1CCC(C(=O)N[C@H]2CC[C@H](CCN3CCN(c4noc5cc(F)c(F)cc45)CC3)CC2)CC1 (stereo partly drawn) [Example 66, 4-Methoxy-cyclohexanecarboxylic acid N-trans(4-{2-[4-(5,6-difluoro-benzo[d]isoxazol-3-yl)-piperazin-1-yl]-ethyl}-cyclohexyl)-amide] | 26.3 | 6.94 | 2930
COCCC(=O)N[C@H]1CC[C@H](CCN2CCN(c3noc4cc(F)c(C)cc34)CC2)CC1 [Example 108, N-trans-(4-{2-[4-(6-Fluoro-5-methyl-benzo[d]isoxazol-3-yl)-piperazin-1-yl]-ethyl}-cyclohexyl)-3-methoxy-propionamide] | 8 | 18.9 | 297
O=C(CC1COC1)N[C@H]1CC[C@H](CCN2CCN(c3noc4cc(Cl)ccc34)CC2)CC1 [Example 47, N-trans-(4-{2-[4-(6-Chloro-benzo[d]isoxazol-3-yl)-piperazin-1-yl]-ethyl}-cyclohexyl)-2-oxetan-3-yl-acetamide] | 8.14 | 6.59 | 238
COC[C@H]1C[C@H](CC(=O)N[C@H]2CC[C@H](CCN3CCN(c4noc5cc(F)c(Cl)cc45)CC3)CC2)C1 [Example 80, N-trans-(4-{2-[4-(5-Chloro-6-fluoro-benzo[d]isoxazol-3-yl)-piperazin-1-yl]-ethyl}-cyclohexyl)-2-trans-(3-methoxymethyl-cyclobutyl)-acetamide] | 6.42 | 2.98 | 11700
O=C(CC1CC1)N[C@H]1CC[C@H](CCN2CCN(c3noc4cc(Cl)ccc34)CC2)CC1 [Example 52, N-trans-(4-{2-[4-(6-Chloro-benzo[d]isoxazol-3-yl)-piperazin-1-yl]-ethyl}-cyclohexyl)-2-cyclopropyl-acetamide] | 3.84 | 5.07 | 315
CO[C@H]1CC[C@H](CC(=O)N[C@H]2CC[C@H](CCN3CCN(c4noc5cc(Cl)c(Cl)cc45)CC3)CC2)CC1 [Example 96, N-trans-(4-{2-[4-(5,6-Dichloro-benzo[d]isoxazol-3-yl)-piperazin-1-yl]-ethyl}-cyclohexyl)-2-trans-(4-methoxy-cyclohexyl)-acetamide] | 35.4 | 51.4 | 11600
COCCC(=O)N[C@H]1CC[C@H](CCN2CCN(c3noc4ccc(C)cc34)CC2)CC1 [Example 104, 3-Methoxy-N-trans-(4-{2-[4-(5-methyl-benzo[d]isoxazol-3-yl)-piperazin-1-yl]-ethyl}-cyclohexyl)-propionamide] | 2.59 | 20.9 | 554
COC1(CC(=O)N[C@H]2CC[C@H](CCN3CCN(c4noc5cc(F)c(F)cc45)CC3)CC2)CCOCC1 [Example 62, N-trans-(4-{2-[4-(5,6-Difluoro-benzo[d]isoxazol-3-yl)-piperazin-1-yl]-ethyl}-cyclohexyl)-2-(4-methoxy-tetrahydro-pyran-4-yl)-acetamide] | 13.4 | 9.92 | 352
NC(=O)CC(=O)N[C@H]1CC[C@H](CCN2CCN(c3noc4ccc(F)cc34)CC2)CC1 [Example 17, N-trans-(4-{2-[4-(5-Fluoro-benzo[d]isoxazol-3-yl)-piperazin-1-yl]-ethyl}-cyclohexyl)-malonamide] | 1.83 | 25.4 | 592
COC1CCN(CC(=O)N[C@H]2CC[C@H](CCN3CCN(c4noc5ccc(F)cc45)CC3)CC2)CC1 [Example 25, N-trans-(4-{2-[4-(5-Fluoro-benzo[d]isoxazol-3-yl)-piperazin-1-yl]-ethyl}-cyclohexyl)-2-(4-methoxy-piperidin-1-yl)-acetamide] | 14.1 | 13.3 | 496
CO[C@H]1CC[C@H](C(=O)N[C@H]2CC[C@H](CCN3CCN(c4noc5cc(Cl)ccc45)CC3)CC2)CC1 [Example 54, 4-trans-Methoxy-cyclohexanecarboxylic acid N-trans-(4-{2-[4-(6-chloro-benzo[d]isoxazol-3-yl)-piperazin-1-yl]-ethyl}-cyclohexyl)-amide] | 50.2 | 8.3 | 3850
CC1(C)C[C@@H](CC(=O)N[C@H]2CC[C@H](CCN3CCN(c4noc5ccc(F)cc45)CC3)CC2)CCO1 [Example 22, 2-((S)-2,2-Dimethyl-tetrahydro-pyran-4-yl)-N-(4-{2-[4-(5-fluoro-benzo[d]isoxazol-3-yl)-piperazin-1-yl]-ethyl}-cyclohexyl)-acetamide] | 7.81 | 32.7 | 1030
O=C(C[C@H]1C[C@H](CO)C1)N[C@H]1CC[C@H](CCN2CCN(c3noc4cc(F)c(Cl)cc34)CC2)CC1 [Example 79, N-trans-(4-{2-[4-(5-Chloro-6-fluoro-benzo[d]isoxazol-3-yl)-piperazin-1-yl]-ethyl}-cyclohexyl)-2-trans-(3-hydroxymethyl-cyclobutyl)-acetamide] | 5.47 | 2.48 | 6870
O=C(CC1CCOCC1)N[C@H]1CC[C@H](CCN2CCN(c3noc4cc(Cl)ccc34)CC2)CC1 [Example 40, N-trans-(4-{2-[4-(6-Chloro-benzo[d]isoxazol-3-yl)-piperazin-1-yl]-ethyl}-cyclohexyl)-2-(tetrahydro-pyran-4-yl)-acetamide] | 7.02 | 11.3 | 1080
O=C(C[C@H]1C[C@H](CO)C1)N[C@H]1CC[C@H](CCN2CCN(c3noc4ccc(F)cc34)CC2)CC1 [Example 20, N-trans-(4-{2-[4-(5-Fluoro-benzo[d]isoxazol-3-yl)-piperazin-1-yl]-ethyl}-cyclohexyl)-2-trans-(3-hydroxymethyl-cyclobutyl)-acetamide] | 5.55 | 19.3 | 386

— US7858630B2, “D3 and 5-HT2A receptor modulators” (Hoffmann-La Roche Inc., priority 2008, dated 2010)
